The target of the test is T1, Indoleamine 2,3-dioxygenase (Homo sapiens, UniProt P14902).
T1 construct: endogenous in cells; host or cells: SKOV-3 (ATCC HTB-77), stimulated with 50 ng/ml interferon gamma
T1 sequence (P14902 whole entry): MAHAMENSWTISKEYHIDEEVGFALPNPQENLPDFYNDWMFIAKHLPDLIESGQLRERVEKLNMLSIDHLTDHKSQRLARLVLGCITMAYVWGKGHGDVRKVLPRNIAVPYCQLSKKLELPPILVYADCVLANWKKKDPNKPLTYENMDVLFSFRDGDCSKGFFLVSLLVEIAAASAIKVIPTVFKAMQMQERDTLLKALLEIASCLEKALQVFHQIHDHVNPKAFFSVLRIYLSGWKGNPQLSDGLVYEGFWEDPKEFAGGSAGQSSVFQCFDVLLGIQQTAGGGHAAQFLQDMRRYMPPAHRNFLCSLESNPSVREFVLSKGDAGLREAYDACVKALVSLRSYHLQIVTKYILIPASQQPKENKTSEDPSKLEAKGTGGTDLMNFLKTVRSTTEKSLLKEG
Nature of the test: SKOV-3 Cellular Indoleamine 2,3-dioxygenase Assay. Particulars: SKOV-3 cells, 50 ng/ml Interferon gamma, 100 μM L-Tryptophan, 24 hours, N-Formylkynurenin fluorescence detection; read-out: cell based activity (IC50). Here is the method:
SKOV-3 Cellular Indoleamine 2,3-dioxygenase Assay
SKOV-3 cells were obtained from the American Type Culture Collection (ATCC® HTB-77™) and maintained in McCoy's medium (Pan Biotech) supplemented with 10% fetal bovine serum and 1% Penicillin/Streptomycin. Cells were kept at 37° C. in a humidified incubator with 5% CO2. For assay preparation, cells were seeded at a density of 2*10^5/ml into black clear bottom 96 well plates in 100 μl medium/well supplemented with 50 ng/ml Interferon gamma (eBioscience, Thermo Fisher Scientific). After cells fully adhered to the plate, dilution series of compounds were added in medium containing additional L-Tryptophan to a final L-Tryptophan concentration of 100 μM. The cells were incubated for 24 hours. Detection of produced N-Formylkynurenin was performed by addition of 3-Methylpiperidine to a final concentration of 200 mM. The plates were sealed and heated to 65° C. for 20 minutes in a water bath. After cooling the fluorescence of each well was recorded with a Victor™X4 (PerkinElmer) plate reader at an emission wavelength of 535 nm and excitation at 405 nm (Tomek et al.; Anal Bioanal Chem (2013) 405:2515-2524, Tomek et al.; Biochim Biophys Acta. 2015 September; 1850(9):1772-80).
Consider `CC1CCC(NC(=O)C(C)C2CCC3(CC2)COc2cc(C(F)(F)F)ccc23)CC1` (single isomer, unassigned) [Example 9e, N-((1r,4r)-4-Methylcyclohexyl)-2-(6-(trifluoromethyl)-2H-spiro[benzofuran-3,1′-cyclohexan]-4′-yl)propanamide], for which the half-inhibitory concentration (IC50) (commonly the concentration that inhibits the measured activity by half) is under 50 nM.
The same measure for `CCC(C(=O)Nc1ccc(Cl)cn1)C1CCC2(CC1)COc1cc(C(F)(F)F)ccc12` (single isomer, unassigned) [Example 10b, N-(5-chloropyridin-2-yl)-2-(6-(trifluoromethyl)-2H-spiro[benzofuran-3,1′-cyclohexan]-4′-yl)butanamide]: under 50 nM.
The same measure for `CCC(C(=O)Nc1ccc(Cl)cn1)C1CCC2(CC1)COc1cc(C(F)(F)F)ccc12` (single isomer, unassigned) [Example 10c, N-(5-chloropyridin-2-yl)-2-(6-(trifluoromethyl)-2H-spiro[benzofuran-3,1′-cyclohexan]-4′-yl)butanamide]: under 50 nM; for `CCC(C(=O)Nc1ccc(Cl)cn1)C1CCC2(CC1)COc1cc(C(F)(F)F)ccc12` (single isomer, unassigned) [Example 10d, N-(5-chloropyridin-2-yl)-2-(6-(trifluoromethyl)-2H-spiro[benzofuran-3,1′-cyclohexan]-4′-yl)butanamide]: under 50 nM.
Regarding `CCC(C(=O)Nc1ccc(Cl)cn1)C1CCC2(CC1)COc1cc(C(F)(F)F)ccc12` (single isomer, unassigned) [Example 10e, N-(5-chloropyridin-2-yl)-2-(6-(trifluoromethyl)-2H-spiro[benzofuran-3,1′-cyclohexan]-4′-yl)butanamide], the IC50 was at least 50 nM.
With `CC(c1nc2cc(Cl)ccc2[nH]1)C1CCC2(CC1)COc1cc(C(F)(F)F)ccc12` (single isomer, unassigned) [Example 11b, 5-Chloro-2-(1-(6-(trifluoromethyl)-2H-spiro[benzofuran-3,1′-cyclohexan]-4′-yl)ethyl)-1H-benzo[d]imidazole], the IC50 is at least 50 nM.
On to `CC(c1nc2cc(Cl)ccc2[nH]1)C1CCC2(CC1)COc1cc(C(F)(F)F)ccc12` (single isomer, unassigned) [Example 11c, 5-Chloro-2-(1-(6-(trifluoromethyl)-2H-spiro[benzofuran-3,1′-cyclohexan]-4′-yl)ethyl)-1H-benzo[d]imidazole], for which the IC50 was under 50 nM.
The same measure for `CC(c1nc2cc(Cl)ccc2[nH]1)C1CCC2(CC1)COc1cc(C(F)(F)F)ccc12` (single isomer, unassigned) [Example 11d, 5-Chloro-2-(1-(6-(trifluoromethyl)-2H-spiro[benzofuran-3,1′-cyclohexan]-4′-yl)ethyl)-1H-benzo[d]imidazole]: under 50 nM; for `CC(c1nc2cc(Cl)ccc2[nH]1)C1CCC2(CC1)COc1cc(C(F)(F)F)ccc12` (single isomer, unassigned) [Example 11e, 5-Chloro-2-(1-(6-(trifluoromethyl)-2H-spiro[benzofuran-3,1′-cyclohexan]-4′-yl)ethyl)-1H-benzo[d]imidazole]: under 50 nM.
On to `CC(C(=O)NC1Cc2ccc(F)cc21)C1CCC2(CC1)COc1cc(C(F)(F)F)ccc12` (single isomer, unassigned) [Example 12a], for which the IC50 was at least 50 nM.
The same measure for `CC(C(=O)NC1Cc2ccc(F)cc21)C1CCC2(CC1)COc1cc(C(F)(F)F)ccc12` (single isomer, unassigned) [Example 12b]: at least 50 nM; for `O=C(C[C@H]1CC[C@@]2(CC1)COc1cc(C(F)(F)F)ccc12)Nc1ccc(Cl)cc1F` (single isomer, unassigned) [Example 14a, N-(4-chloro-2-fluorophenyl)-2-(6-(trifluoromethyl)-2H-spiro[benzofuran-3,1′-cyclohexan]-4′-yl)acetamide]: under 50 nM; for `O=C(C[C@H]1CC[C@@]2(CC1)COc1cc(C(F)(F)F)ccc12)Nc1ccc(Cl)cc1F` (single isomer, unassigned) [Example 14b, N-(4-chloro-2-fluorophenyl)-2-(6-(trifluoromethyl)-2H-spiro[benzofuran-3,1′-cyclohexan]-4′-yl)acetamide]: at least 50 nM.
Consider `C[C@H](C(=O)Nc1ccc(Cl)cc1)[C@H]1CC[C@@]2(CC1)COc1cc(C(F)(F)F)ccc12` [Example 3b, (S)—N-(4-Chlorophenyl)-2-((3S,4′r)-6-(trifluoromethyl)-2H-spiro[benzofuran-3,1′-cyclohexan]-4′-yl)propanamide], for which the IC50 was under 50 nM.
The same measure for `C[C@@H](C(=O)Nc1ccc(Cl)cc1)[C@H]1CC[C@@]2(CC1)COc1cc(C(F)(F)F)ccc12` [Example 3c, (R)—N-(4-Chlorophenyl)-2-((3R,4′r)-6-(trifluoromethyl)-2H-spiro[benzofuran-3,1′-cyclohexan]-4′-yl)propanamide]: under 50 nM; for `C[C@H](C(=O)Nc1ccc(Cl)cc1)[C@H]1CC[C@]2(CC1)COc1cc(C(F)(F)F)ccc12` [Example 3d, (S)—N-(4-Chlorophenyl)-2-((3R,4′s)-6-(trifluoromethyl)-2H-spiro[benzofuran-3,1′-cyclohexan]-4′-yl)propanamide]: under 50 nM; for `C[C@@H](C(=O)Nc1ccc(Cl)cc1)[C@H]1CC[C@]2(CC1)COc1cc(C(F)(F)F)ccc12` [Example 3e, (R)—N-(4-chlorophenyl)-2-((3S,4′s)-6-(trifluoromethyl)-2H-spiro[benzofuran-3,1′-cyclohexan]-4′-yl)propanamide]: at least 50 nM.
Take `C[C@H](C(=O)Nc1ccc(Cl)cc1)[C@H]1CC[C@]2(CC1)COc1cc(C(F)F)ccc12` [Example 13, (S)—N-(4-chlorophenyl)-2-((3R,4′s)-6-(difluoromethyl)-2H-spiro[benzofuran-3,1′-cyclohexan]-4′-yl)propanamide]: the IC50 was under 50 nM.
